Measurements as given in patent publication US8546392B2, “17Beta-hydroxysteroid dehydrogenase type 1 inhibitors for the treatment of hormone-related diseases” (Universitaet des Saarlandes, priority 2008, dated 2013).

Target: 17β-HSD1 (Homo sapiens (Human), UniProt P14061)
Assay: 17β-HSD1 test assay (recombinant protein from Sf9 insect cells, 3H-estrone/NADPH)
Assay type: biochemical
Settings: for inhibition at 1 µM: read-out: HSD 1 μM (% inhibition of HSD1); for inhibition at 0.1 µM: read-out: HSD1 100 nM (% inhibition)
Method: Recombinant protein obtained from Sf9 insect cells (0.1 μg/ml) is incubated with 20 mM KH2PO4, pH 7.4, 30 nM ^3H-estrone and 1 mM NADPH for 30 min at RT in the presence of the potential inhibitor in a concentration of 1 μM or 100 nM. The stock solutions of the compounds are prepared in DMSO (dimethylsulfoxide) so that the final concentration of DMSO in the sample is 1%. After the prescribed incubation time, the reaction is quenched by adding trichloroacetic acid (10% final concentration). The samples are centrifuged in microtitration plates at 400 rpm for 10 min, and the supernatants are charged on a reversed-phase HPLC equipped with a Waters Symmetrie C18 column and Waters Sentry Guard column. The isocratic HPLC run is performed at RT with a flow rate of 1 ml/min and acetonitrile/water 48:52 as the eluent. The radioactivity was measured by means of a Packard Flow Scintillation Analyzer. […]

Sequence of 17β-HSD1 (P14061 whole entry): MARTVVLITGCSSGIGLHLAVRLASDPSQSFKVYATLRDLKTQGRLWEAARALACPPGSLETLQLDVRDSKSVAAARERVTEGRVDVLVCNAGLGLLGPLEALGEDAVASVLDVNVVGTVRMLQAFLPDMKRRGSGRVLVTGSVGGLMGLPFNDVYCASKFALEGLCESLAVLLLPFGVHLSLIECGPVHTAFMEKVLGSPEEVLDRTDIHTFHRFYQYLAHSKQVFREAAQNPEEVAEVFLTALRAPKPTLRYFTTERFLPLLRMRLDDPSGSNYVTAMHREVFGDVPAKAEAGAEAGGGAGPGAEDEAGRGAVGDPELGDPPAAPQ

Row | inhibition at 1 µM (inhibitor 1 μM) [%] | inhibition at 0.1 µM (inhibitor 100 nM) [%] | HSD1 100 nM (% inhibition) (inhibitor 100 nM) [%] | HSD 1 μM (% inhibition of HSD1) (inhibitor 1 μM) [%] | Molecule
1 | < 10 | < 10 |  |  | Oc1ccc(-c2ccc3cc(O)ccc3c2)cc1 [Compound 20, 6-(4-Hydroxyphenyl)-2-naphthol]
2 | 53 | < 10 |  |  | O=C(Nc1nccs1)c1c(O)ccc2cc(-c3cccc(O)c3)ccc12 [Compound 46, 2-Hydroxy-6-(3-hydroxyphenyl)-N-(thiazol-2-yl)-1-naphthamide]
3 | 78.2 | 68 |  |  | O=S(=O)(Nc1cccc(-c2c(O)ccc3cc(-c4cccc(O)c4)ccc23)c1)c1cc(F)c(Br)cc1F [Compound 89, 4-bromo-2,5-difluoro-N-{3-[2-hydroxy-6-(3-hydroxyphenyl)-1-naphthyl]phenyl}benzenesulfonamide]
4 | < 10 | < 10 |  |  | Oc1ccc2cc(-c3cccs3)ccc2c1 [Compound 6]
5 | 73.4 | 28.8 |  |  | O=C(c1c(O)ccc2cc(-c3cccc(O)c3)ccc12)N1CCCCC1 [Compound 51, (2-Hydroxy-6-(3-hydroxyphenyl)naphthalene-1-yl)(piperidin-1-yl)methanone]
6 | < 10 | < 10 |  |  | Nc1cccc(-c2ccc3cc(O)ccc3c2)c1 [Compound 23, 6-(3-Aminophenyl)-naphthalen-2-ol]
7 | 31.6 | < 10 |  |  | Oc1ccc2cc(-c3cccnc3)ccc2c1 [Compound 4, 3-(6-hydroxy-2-naphthyl)pyridine]
8 | 74.7 | 66.4 |  |  | O=C(Nc1nccs1)c1cccc(-c2c(O)ccc3cc(-c4cccc(O)c4)ccc23)c1 [Compound 71, 3-(2-Hydroxy-6-(3-hydroxyphenyl)naphthalene-1-yl)-N-(thiazol-2-yl)benzamide]
9 | 77.3 | 16.5 |  |  | CS(=O)(=O)NC(=O)c1cccc(-c2c(O)ccc3cc(-c4cccc(O)c4)ccc23)c1 [Compound 90, 3-(2-Hydroxy-6-(3-hydroxyphenyl)naphthalene-1-yl)-N-(methylsulfonyl)-benzamide]
10 | < 10 | < 10 |  |  | CNC(=O)/C=C/c1cc(O)cc(-c2ccc3cc(O)ccc3c2)c1 [Compound 31, (E)-3-[3-Hydroxy-5-(6-hydroxynaphthalene-2-yl)phenyl]-N-methylacrylamide]
11 | < 10 | < 10 |  |  | Oc1cccc(-c2cc3cc(O)ccc3[nH]2)c1 [Compound 1, 2-(3-Hydroxyphenyl)-1H-indol-5-ol]
12 | < 10 | < 10 |  |  | Oc1cc(-c2ccc3cc(O)ccc3c2)cc(-c2ccc3cc(O)ccc3c2)c1 [Compound 28, 6-[3-Hydroxy-5-(6-hydroxy-2-naphthyl)phenyl]-2-naphthol]
13 | 78.4 | 40.5 |  |  | O=S(=O)(Nc1cccc(-c2c(O)ccc3cc(-c4cccc(O)c4)ccc23)c1)c1ccc(Br)cc1OC(F)(F)F [Compound 82, 4-bromo-N-{3-[2-hydroxy-6-(3-hydroxyphenyl)-1-naphthyl]phenyl}-2-(trifluoromethoxy)benzenesulfonamide]
14 | 75 |  |  |  | Cc1ccc(S(=O)(=O)c2c(O)ccc3cc(-c4cccc(O)c4)ccc23)cc1 [Compound 92]
15 | 62.4 | 27.8 |  |  | O=C(c1c(O)ccc2cc(-c3cccc(O)c3)ccc12)N1CCOCC1 [Compound 44, (2-Hydroxy-6-(3-hydroxyphenyl)naphthalene-1-yl)(morpholino)methanone]
16 | 41.7 | 14.3 |  |  | Cc1cc(O)cc(-c2ccc3cc(O)ccc3c2)c1 [Compound 26, 6-(3-Hydroxy-5-methylphenyl)-2-naphthol]
17 | 77.7 | 54.5 |  |  | O=S(=O)(Nc1cccc(-c2c(O)ccc3cc(-c4cccc(O)c4)ccc23)c1)c1cc(Br)c(Br)s1 [Compound 85, 4,5-dibromo-N-{3-[2-hydroxy-6-(3-hydroxyphenyl)-1-naphthyl]phenyl}thiophene-2-sulfonamide]
18 | < 10 | < 10 |  |  | Oc1ccc(-c2cc(O)cc(-c3ccc4cc(O)ccc4c3)c2)cc1 [Compound 27, 5-(6-Hydroxy-2-naphthyl)-1,1′-biphenyl-3,4′-diol]
19 | < 10 | < 10 |  |  | O=C(Nc1ccc(-c2ccc3cc(O)ccc3c2)cc1O)c1ccccc1 [Compound 36, N-[2-Hydroxy-4-(6-hydroxy-2-naphthyl)phenyl]benzamide]
20 | 61 | 26 |  |  | Oc1cccc(-c2ccc3ccccc3c2)c1 [Compound 3, 3-Naphthalene-2-ylphenol]
21 | < 10 | < 10 |  |  | Oc1ccc2cc(-c3ccsc3)ccc2c1 [Compound 5]

Row | inhibition at 1 µM (inhibitor 1 μM) [%] | inhibition at 0.1 µM (inhibitor 100 nM) [%] | HSD1 100 nM (% inhibition) (inhibitor 100 nM) [%] | HSD 1 μM (% inhibition of HSD1) (inhibitor 1 μM) [%] | Molecule
22 |  |  | 72.8 | 78.9 | N-{3-[2-hydroxy-6-(3-hydroxyphenyl)-1-naphthyl]phenyl-3-nitrobenzenesulfonamide [Compound 75]
23 | 18.5 | < 10 |  |  | CC(=O)Nc1cccc(-c2ccc3cc(O)ccc3c2)c1 [Compound 9, N-[3-(6-hydroxy-2-naphthyl)phenyl]acetamide]
24 | < 10 | < 10 |  |  | O=C(O)c1ccc(-c2ccc3cc(O)ccc3c2)cc1 [Compound 8, 4-(6-hydroxy-2-naphthyl)benzoic acid]
25 | 82.9 | 71.5 |  |  | O=[N+]([O-])c1ccc(S(=O)(=O)Nc2cccc(-c3c(O)ccc4cc(-c5cccc(O)c5)ccc34)c2)cc1 [Compound 81, N-{3-[2-hydroxy-6-(3-hydroxyphenyl)-1-naphthyl]phenyl}-4-nitrobenzenesulfonamide]
26 | < 10 | < 10 |  |  | CC(=O)Nc1ccc(-c2ccc3cc(O)ccc3c2)cc1O [Compound 35, N-[2-Hydroxy-4-(6-hydroxy-2-naphthyl)phenyl]acetamide]
27 | 80.5 | 71.2 |  |  | O=S(=O)(Nc1cccc(-c2c(O)ccc3cc(-c4cccc(O)c4)ccc23)c1)c1cccc2cccnc12 [Compound 73, N-{3-[2-hydroxy-6-(3-hydroxyphenyl)-1-naphthyl]phenyl}quinoline-8-sulfonamide]
28 | < 10 | < 10 |  |  | CNC(=O)CCc1cc(O)cc(-c2ccc3cc(O)ccc3c2)c1 [Compound 33, 3-[3-Hydroxy-5-(6-hydroxynaphthalene-2-yl)phenyl]-N-methylpropionamide]
29 | < 10 | < 10 |  |  | Oc1ccc(-c2ccc3c(O)cccc3c2)cc1 [Compound 21, 6-(4-Hydroxyphenyl)-1-naphthol]
30 | < 10 | < 10 |  |  | O=[N+]([O-])c1cccc(-c2ccc3cc(O)ccc3c2)c1 [Compound 22, 6-(3-Nitrophenyl)-naphthalene-2-ol]
31 | 57.7 | 30.3 |  |  | Oc1cncc(-c2ccc3cc(O)ccc3c2)c1 [Compound 17, 5-(6-Hydroxynaphthalene-2-yl)pyridin-3-ol]
32 | < 10 | < 10 |  |  | OCc1cccc(-c2ccc3cc(O)ccc3c2)c1 [Compound 10, 6-[3-(hydroxymethyl)-phenyl]-2-naphthol]
33 | 62 | 17 |  |  | O=C(Nc1ccccc1)c1cc2cc(-c3cccc(O)c3)ccc2cc1O [Compound 38, 3-Hydroxy-7-(3-hydroxyphenyl)-N-phenyl-2-naphthamide]
34 | 84 | 37 |  |  | O=C(Nc1ccccn1)c1c(O)ccc2cc(-c3cccc(O)c3)ccc12 [Compound 49, 2-Hydroxy-6-(3-hydroxyphenyl)-N-(pyridin-2-yl)-1-naphthamide]
35 | 44.5 | < 10 |  |  | O=C(c1c(O)ccc2cc(-c3cccc(O)c3)ccc12)N1CCNCC1 [Compound 45, (2-Hydroxy-6-(3-hydroxyphenyl)naphthalene-1-yl)(piperazin-1-yl)methanone]
36 | 18 | < 10 |  |  | CNC(=O)c1cc2cc(-c3cccc(O)c3)ccc2cc1O [Compound 37, 3-Hydroxy-7-(3-hydroxyphenyl)-N-methyl-2-naphthamide]
37 | 12.9 | < 10 |  |  | OCc1ccc(-c2ccc3cc(O)ccc3c2)cc1 [Compound 11, 6-[4-(hydroxymethyl)phenyl]-2-naphthol]
38 | 56.9 | 24 |  |  | Oc1cccc(-c2cnc3cc(O)ccc3c2)c1 [Compound 16, 3-(3-Hydroxyphenyl)quinolin-7-ol]
39 | 82.4 | 76.8 |  |  | O=C(NCCc1ccc(S(=O)(=O)Nc2cccc(-c3c(O)ccc4cc(-c5cccc(O)c5)ccc34)c2)cc1)C(F)(F)F [Compound 88, 2,2,2-trifluoro-N-[2-(4-{3-[2-hydroxy-6-(3-hydroxyphenyl)-1-naphthyl]phenylsulfamoyl}phenyl)ethyl]acetamide]
40 | 78.1 | 49.8 |  |  | O=[N+]([O-])c1cc(C(F)(F)F)ccc1S(=O)(=O)Nc1cccc(-c2c(O)ccc3cc(-c4cccc(O)c4)ccc23)c1 [Compound 83, 2-nitro-N-{3-[2-hydroxy-6-(3-hydroxyphenyl)-1-naphthyl]phenyl}-4-(trifluoromethyl)benzenesulfonamide]
41 | 79.7 | 62.1 |  |  | N#Cc1ccccc1S(=O)(=O)Nc1cccc(-c2c(O)ccc3cc(-c4cccc(O)c4)ccc23)c1 [Compound 76, 2-cyano-N-{3-[2-hydroxy-6-(3-hydroxyphenyl)-1-naphthyl]phenyl}benzenesulfonamide]
